Assay results published in publication PMC7077986, “Molecular basis for catabolism of the abundant metabolite trans-4-hydroxy-L-proline by a microbial glycyl radical enzyme” (eLife, 2020).

B1: trans-4-hydroxy-L-proline dehydratase (HypD) from Clostridioides difficile 70-100-2010, wild type, unactivated (enzyme)
chain: MARGTFERTKKLREESINAEPHISIERAVLMTEAYKKYEGSVEIPVLRALSFKHYIENRTLSINDGELIVGEKGDSPNGAPTYPEICCHTMEDLEVMHNRDIINFSVSEEARKIHKEEIIPFWKKRQTRDKIINAMTPEWLAAYEAGMFTEFMEQRAPGHTVCGDTIYKKGFLDLKKDIEARLKELDFLNDLDAYNKKADLEAMAIACDAMVILGKRYAEKARQMAEEETDEAKKKDLLLIAETCDVVPAHKPETYHQAIQMYWFVHIGVTTELNIWDAFTPGRLDQHLNPFYERDVENGILDRDRAQELLECLWVKFNNQPAPPKVGITLKESSTYTDFANINTGGINPDGQDGVNEVSYIILDVMDEMKLIQPSSNVQISKKTPQKFLKRACEISRKGWGQPAFYNTEAIVQELMEAGKTIEDARLGGTSGCVETGCFGKEAYVLTGYMNIPKILELTLNNGYDPISKKQIGIETGDPRNFQSYEELFEAFKKQLHYMIDIKIEGNAVIENICAKHMPCPLMSTIVDDCIEKGKDYQRGGARYNTRYIQGVGIGTITDSLTAIKYNVFDKKKFDMDTLLKALDANFEGYEAILNLVSNKTPKYGNDDDYADEIMQEIFNAYYNEVTGRPTVCGGEYRVDMLPTTCHIYFGEIMGASPNGRLCAKPVSEGISPEKGGDTNGPTAVIKSCAKMDHIKTGGTLLNQRFAPSVVQGEKGLDNMANLVRAYFNMDGHHIQFNVFDKNVLLEAQKNPQDYKDLIVRVAGYSDHFNNLSRTLQDEIIGRTEQTF
notes: HypD (trans-4-hydroxy-L-proline dehydratase), glycyl radical enzyme, gene amplified from C. difficile 70-100-2010 genomic DNA; UniProt A0A031WDE4; all residues other than the hexahistidine tag are seen in the structures; Crystallised with the N-terminal hexahistidine tag intact; also called Hyp dehydratase; CdHypD; source: E. coli BL21-CodonPlus(DE3)-RIL, pET28a-CdHypD, purified (Ni-NTA); not …

Key:
[1] = biological target: T1, HypD (trans-4-hydroxy-L-proline dehydratase; CdHypD) (Clostridioides difficile, UniProt A0A031WDE4); assay: X-ray crystal structure, […] Å; type: binding; settings: unactivated enzyme; active site; 4 mM Hyp in crystallization buffer, 100 mM Hyp in cryoprotectant, pH 7.5, 21 °C
T1 construct: gene pflD; full length, N-terminal hexahistidine tag (pET28a-CdHypD), E. coli BL21-CodonPlus(DE3)-RIL (delta proC for assays); dimeric; for activity the Gly765 radical was installed by HypD-AE
T1 sequence (A0A031WDE4 1-789): B1 chain

[2] = biological target: the molecule itself; assay: crystal structure; unactivated wild-type HypD with intact N-terminal hexahistidine tag, crystallised aerobically, hanging drop, 21°C, 14% PEG 3350, 100 mM KCl, 100 mM HEPES pH 7.5; glycerol-bound (2.05 Å) and Hyp-bound (2.52 Å) crystals; eight chains in the asymmetric unit

Row | Molecule | X-ray crystal structure, 2.52 Å [1] | stoichiometry N [2]
1 | O=C(O)[C@@H]1C[C@@H](O)CN1 [Hyp] | In the active site of the Hyp-bound HypD structure, electron density was observed for the substrate | 
2 | B1 |  | 2
